The values below come from patent US5608091A, “Quinizarin compound, method for production thereof, and use therefor” (Nippon Shokubai Co., Ltd., priority 1993, dated 1997).

What all share (assay type): physicochemical
The nature of series [1]: Visible absorption spectrum (λmax, ε). Conditions: in chloroform; for ε: at λ max, in M-1 cm-1 (unit assumed).
A short description of series [2]: Solubility in toluene and methyl ethyl ketone, three-point scale. The text has this: In these tables, the solubility is rated on the three-point scale, wherein Δ stands for a solubility of less than 1% by weight, .largecircle. for a solubility in the approximate range of 1 to 3% by weight, and .circleincircle. for a solubility of not less than 3% by weight.
Another series can be described thus: Color tone of the dye. Conditions: Tables 1-9.

In series [1], `Nc1c(Sc2ccccc2)c(Sc2ccccc2)c(F)c2c1C(=O)c1c(O)ccc(O)c1C2=O` [(296)] displayed a λ max of 542 nm and a ε of 12300. Also, in series [2], the “Solubility in methyl ethyl ketone” value is reported as “.largecircle. (a solubility in the approximate range of 1 to 3% by weight)” and the Solubility in toluene result is “.largecircle. (a solubility in the approximate range of 1 to 3% by weight)”. Moreover, the Color tone entry in the series “Color tone of the dye” is reported as “Purple”.

In series [1], `O=C1c2c(O)ccc(O)c2C(=O)c2c(Nc3ccccc3)c(Sc3ccccc3)c(Sc3ccccc3)c(Nc3ccccc3)c21` [(297)] gave a λ max of 692 nm and a ε of 15900. Further, in series [2], the “Solubility in methyl ethyl ketone” value is “.largecircle. (a solubility in the approximate range of 1 to 3% by weight)” and the Solubility in toluene entry is “.largecircle. (a solubility in the approximate range of 1 to 3% by weight)”. In addition, in “Color tone of the dye”, the Color tone result was “Cyan”.

`O=C1c2c(O)ccc(O)c2C(=O)c2c(F)c(Sc3ccccc3)c(Sc3ccccc3)c(F)c21` [(298)]: in series [1], the λ max is 489 nm and the ε turned out to be 12700. In series [2], the “Solubility in methyl ethyl ketone” value was “.largecircle. (a solubility in the approximate range of 1 to 3% by weight)” and the Solubility in toluene entry was “.circleincircle. (a solubility of not less than 3% by weight)”. For the same compound, the Color tone entry in the series “Color tone of the dye” is listed as “Orange”.

In series [1], `O=C(O)c1c(F)c(F)c(Sc2c(F)c3c(c(F)c2Sc2c(F)c(F)c(C(=O)O)c(F)c2F)C(=O)c2c(O)ccc(O)c2C3=O)c(F)c1F` [(299)] came in with a λ max of 510 nm and a ε of 12600. Also, in series [2], the “Solubility in methyl ethyl ketone” value is “Δ (a solubility of less than 1% by weight)” and the Solubility in toluene result is given as “Δ (a solubility of less than 1% by weight)”. The Color tone entry in “Color tone of the dye” is given as “Cinnabar”.

In series [1], `N#Cc1c(F)c(F)c(Sc2c(F)c3c(c(F)c2Sc2c(F)c(F)c(C#N)c(F)c2F)C(=O)c2c(O)ccc(O)c2C3=O)c(F)c1F` [(300)] had a λ max of 521 nm and a ε of 13200. For the same compound, in series [2], the “Solubility in methyl ethyl ketone” value is “Δ (a solubility of less than 1% by weight)” and the Solubility in toluene result was “Δ (a solubility of less than 1% by weight)”. Besides, in the series “Color tone of the dye”, the Color tone entry was “Cinnabar”.

With `O=C1c2c(O)ccc(O)c2C(=O)c2c(F)c(Sc3ccc(O)cc3)c(Sc3ccc(O)cc3)c(F)c21` [(301)], in series [1], the λ max is 514 nm and the ε is reported as 12900. Besides, in series [2], the “Solubility in methyl ethyl ketone” value is listed as “.largecircle. (a solubility in the approximate range of 1 to 3% by weight)” and the Solubility in toluene entry is on record as “.largecircle. (a solubility in the approximate range of 1 to 3% by weight)”. In the series “Color tone of the dye”, the Color tone entry was “Cinnabar”.

In series [1], `COc1ccc(Sc2c(F)c3c(c(F)c2Sc2ccc(OC)cc2)C(=O)c2c(O)ccc(O)c2C3=O)cc1` [(302)] gave a λ max of 504 nm and a ε of 15100. For the same compound, in series [2], the “Solubility in methyl ethyl ketone” value is recorded as “.largecircle. (a solubility in the approximate range of 1 to 3% by weight)” and the Solubility in toluene entry is “.largecircle. (a solubility in the approximate range of 1 to 3% by weight)”. The Color tone result in the series “Color tone of the dye” is “Cinnabar”.

With `CCCCCCSc1c(F)c2c(c(F)c1SCCCCCC)C(=O)c1c(O)ccc(O)c1C2=O` [(303)], in series [1], the λ max was determined as 506 nm and the ε stood at 11300. Further, in series [2], the “Solubility in methyl ethyl ketone” value is recorded as “.largecircle. (a solubility in the approximate range of 1 to 3% by weight)” and the Solubility in toluene entry is on record as “.largecircle. (a solubility in the approximate range of 1 to 3% by weight)”. Besides, in “Color tone of the dye”, the Color tone result was “Orange”.

On to `CCCCCCCCSc1c(F)c2c(c(F)c1SCCCCCCCC)C(=O)c1c(O)ccc(O)c1C2=O` [(304)], for which, in series [1], the λ max came out at 504 nm and the ε is reported as 14600. Besides, in series [2], the “Solubility in methyl ethyl ketone” value is recorded as “.largecircle. (a solubility in the approximate range of 1 to 3% by weight)” and the Solubility in toluene entry is recorded as “.largecircle. (a solubility in the approximate range of 1 to 3% by weight)”. Also, the Color tone result in the series “Color tone of the dye” is listed as “Orange”.
